According to publication PMC3502511, “Inhibition of the Prokaryotic Pentameric Ligand-Gated Ion Channel ELIC by Divalent Cations” (PLoS Biology, 2012):

Legend:
Type in all cases: cell-based, Erwinia chrysanthemi
ELIC R91A = biological target: T1, ELIC R91A (Dickeya chrysanthemi, UniProt P0C7B7, INS163G/R91A); assay: Two-electrode voltage clamp, ELIC R91A in oocytes
T1 construct: expressed in transfected cells; host or cells: X. laevis oocytes
Experimental: (§1) Constructs containing the gene of either the WT or mutant channels preceded by the signal sequence of the chicken α7nAchR were cloned into the pTLN vector for expression in X. laevis oocytes. After linearization of the plasmid DNA by MluI, capped complementary RNA was transcribed with the mMessage mMachine kit (Ambion) and purified with the RNeasy kit (Qiagen). For expression, 1–50 ng of RNA was injected into defolliculated oocytes. Two-electrode voltage clamp measurements were performed 1 d after injection at 20°C (OC-725B, Warner Instrument Corp.). Currents were recorded in bath solutions containing 10 mM HEPES (pH 7), 130 mM NaCl, and the indicated concentrations of cysteamine and divalent cations. In case of solutions containing Zn^2+, cysteamine was replaced by propylamine. The membrane potential in all dose–response measurements was set to −40 mV. As ELIC is permeable to divalent cations, we tested if endogenous calcium-activated chloride channels affected our measurements. To chelate intracellular calcium ions, the oocytes were incubated for 15 to 30 min in bath solutions lacking divalent ions but containing 10 µM BAPTA-AM.

ELIC WT = biological target: T2, ELIC WT (Dickeya chrysanthemi, UniProt P0C7B7, INS163G); assay: cell-based; conditions: Ki app, Schild analysis
T2 construct: expressed in transfected cells; host or cells: X. laevis oocytes (cRNA injection, pTLN vector)
Experimental: as §1

ELIC D113A/D158A = biological target: T3, ELIC D113A/D158A (Dickeya chrysanthemi, UniProt P0C7B7, D113A/D158A/INS163G); assay: cell-based
T3 construct: expressed in transfected cells; host or cells: X. laevis oocytes
Experimental: as §1

CC(=O)OCC[N+](C)(C)C [ACh, acetylcholine]
Ki (ELIC R91A): 170 µM
Ki (ELIC WT; WT/1 mM Ca^2+): 2200 µM
Ki (ELIC WT; WT/.25 mM Ca^2+): 1200 µM
Ki (ELIC WT; WT/.5 mM Ca^2+): 1300 µM
Ki (ELIC WT; WT, agonist cysteamine): 1600 µM
Ki (ELIC D113A/D158A): 2100 µM
